# According to patent US20260070922A1, “PYRAZOLE AND IMIDAZOLE DERIVATIVES AS DUAL OREXIN AND KAPPA-OPIOID RECEPTORS MODULATORS COMPOSITION, METHODS FOR TREATING NEUROLOGICAL AND PSYCHIATRIC DISORDERS” (HAGER BIOSCIENCES, LLC, priority 2022, published 2026):
# Key:
# [1] = biological target: T1, human k-opioid receptor (kOR) (Homo sapiens, UniProt P41145); experiment: Human k-opioid (KOP) receptor (agonist radioligand [3H]U-69593) binding assay, transfected RBL cell membranes; details: read-out: KOR % Inh. @ 1 uM
# T1 construct: expressed in transfected cells; host or cells: RBL cells (membrane homogenates)
# T1 sequence (P41145 whole entry): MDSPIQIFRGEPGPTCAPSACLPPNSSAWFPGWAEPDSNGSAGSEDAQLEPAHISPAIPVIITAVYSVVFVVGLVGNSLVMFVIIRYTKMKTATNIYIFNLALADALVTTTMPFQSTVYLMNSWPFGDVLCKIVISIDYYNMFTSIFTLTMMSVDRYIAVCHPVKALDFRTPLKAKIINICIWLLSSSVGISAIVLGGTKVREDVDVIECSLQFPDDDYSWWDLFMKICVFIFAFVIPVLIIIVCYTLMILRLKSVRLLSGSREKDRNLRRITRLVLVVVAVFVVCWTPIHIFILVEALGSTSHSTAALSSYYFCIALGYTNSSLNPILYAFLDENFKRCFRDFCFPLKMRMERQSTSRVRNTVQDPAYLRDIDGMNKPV
# Description: Human k-Opioid (KOP) Receptor (Agonist Radioligand) Binding Assay
# Purpose: Evaluation of the affinity of compounds for the human k-opioid receptor in transfected RBL cells determined in a radioligand binding assay.
# Experimental protocol: Cell membrane homogenates (about 80 μg protein) are incubated for 60 min at 22° C. with 0.5 nM [3H]U-69593 in the absence or presence of the test compound in a buffer containing 50 mM Tris-HCl (pH 7.4), 10 mM MgCl2 and 1 mM EDTA. Nonspecific binding is determined in the presence of 10 μM naloxone. Following incubation, the samples are filtered rapidly under vacuum through glass fiber filters ([…], Packard) presoaked with 0.3% PEI and rinsed several times with ice-cold 50 mM Tris-HCl using a 96-sample cell harvester (Unifilter, Packard). The filters are dried then counted for radioactivity in a scintillation counter (Topcount, Packard) using a scintillation cocktail (Microscint 0, Packard). The results are expressed as a percent inhibition of the control radioligand specific binding. The standard reference compound is U-50488, which is tested in each experiment at several concentrations to obtain a competition curve from which its IC50 is calculated.
# [2] = biological target: T2, human orexin-2 receptor (OX2R) (Homo sapiens, UniProt O43614); experiment: In vitro orexin antagonism assay: intracellular calcium measurement (FLIPR), orexin-A 3 nM as agonist; type: cell-based; details: read-out: OX2R, % Inh. @ 1 uM
# T2 construct: expressed in transfected cells; host or cells: CHO cells (G418 selection)
# T2 sequence (O43614 1-444): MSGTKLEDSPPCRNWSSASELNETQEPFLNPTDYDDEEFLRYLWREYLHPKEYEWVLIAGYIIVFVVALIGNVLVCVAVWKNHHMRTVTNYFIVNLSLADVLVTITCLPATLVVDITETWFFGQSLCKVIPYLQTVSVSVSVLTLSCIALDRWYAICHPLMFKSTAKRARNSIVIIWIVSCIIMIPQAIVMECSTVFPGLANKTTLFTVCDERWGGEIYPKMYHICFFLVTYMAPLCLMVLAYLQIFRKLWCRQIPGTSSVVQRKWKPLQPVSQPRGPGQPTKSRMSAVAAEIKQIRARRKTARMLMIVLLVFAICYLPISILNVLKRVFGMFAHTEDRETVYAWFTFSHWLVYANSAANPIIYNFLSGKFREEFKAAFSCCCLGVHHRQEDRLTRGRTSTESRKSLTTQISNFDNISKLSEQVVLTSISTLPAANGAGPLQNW
# Procedure, shortened: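 Fluorescence peak on 3 nM orexin-A challenge, read by FLIPR and compared with vehicle, yields IC50 (geometric mean when repeated; may be normalized to an on-plate reference). Antagonists were added 120 min beforehand to fluo-4-loaded recombinant CHO cells expressing human OX1R or OX2R.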
# [3] = biological target: T3, Orexin type 1 (OX1R) receptor (Homo sapiens, UniProt O43613); experiment: as above; type: cell-based; details: for IC50: first value of IC50/Kb cell; for inhibition at 1 µM: read-out: OX1R, % Inh. @ 1 uM; for Kb: second value of IC50/Kb cell
# T3 construct: expressed in transfected cells; host or cells: CHO cells (G418 selection)
# T3 sequence (O43613 1-425): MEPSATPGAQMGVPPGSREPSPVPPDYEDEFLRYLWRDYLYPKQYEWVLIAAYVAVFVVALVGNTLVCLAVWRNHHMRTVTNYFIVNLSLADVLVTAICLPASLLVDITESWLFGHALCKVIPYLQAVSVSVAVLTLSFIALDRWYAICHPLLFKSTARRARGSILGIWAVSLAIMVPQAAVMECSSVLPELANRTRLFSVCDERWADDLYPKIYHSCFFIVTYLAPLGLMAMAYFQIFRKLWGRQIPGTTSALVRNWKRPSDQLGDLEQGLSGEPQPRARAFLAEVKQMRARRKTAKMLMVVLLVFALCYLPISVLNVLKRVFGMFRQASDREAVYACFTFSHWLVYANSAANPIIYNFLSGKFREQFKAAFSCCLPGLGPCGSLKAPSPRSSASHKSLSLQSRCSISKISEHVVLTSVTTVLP
# Procedure, shortened: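 CHO cells expressing the human orexin receptor were loaded with 3 μM fluo-4 AM plus 5 mM probenecid, then exposed to antagonist for 120 min before 3 nM orexin-A (final) was added on a FLIPR.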
Compound,inhibition at 1 µM [1],inhibition at 1 µM [2],IC50 [3],inhibition at 1 µM [3],Kb [3]
C[C@@]1(COc2ccc(C(F)(F)F)cn2)CCCN1C(=O)c1c(-c2ccccn2)nn2ccccc12 [Example 147],2%,25%,43 nM,100%,9 nM
C[C@@]1(COc2ccc(C(F)(F)F)cn2)CCCN1C(=O)c1c(-c2ncccn2)nn2ccccc12 [Example 148],8%,19%,120 nM,98%,26 nM
C[C@@]1(Cn2ccc(-c3ccccn3)n2)CCCN1C(=O)c1nc2ccccn2c1-c1ccccc1 [Example 149],28%,13%,570 nM,89%,120 nM
C[C@@]1(Cn2ccc(-c3ccccn3)n2)CCCN1C(=O)c1nn2ccccc2c1-c1ccccc1 [Example 150],16%,11%,340 nM,97%,72 nM
C[C@@]1(COc2ccc(C(F)(F)F)cn2)CCCN1C(=O)c1c(-c2ccccc2)nn2ccccc12 [Example 151],7%,34%,90 nM,99%,19 nM
O=C(c1nn2c(c1-c1ccccc1)COCC2)N1[C@@H]2CC[C@@H](C2)[C@H]1COc1ccc(C(F)(F)F)cn1 [Example 152],3%,16%,2400 nM,58%,510 nM
O=C(c1c(-c2ncccn2)nn2ccccc12)N1[C@@H]2CC[C@@H](C2)[C@H]1COc1ccc(C(F)(F)F)cn1 [Example 153],0%,35%,190 nM,90%,40 nM
C[C@@]1(Cn2ccc(-c3ccccn3)n2)CCCN1C(=O)c1nn2c(c1-c1ccccc1)COCC2 [Example 154],23%,5%,520 nM,83%,110 nM
O=C(c1c(-c2ncccn2)nn2ccccc12)N1CCC[C@H]1Cc1nc(-c2ccccn2)no1 [Example 155],12%,25%,410 nM,69%,87 nM
O=C(c1c(-c2ccccn2)nn2ccccc12)N1CCC[C@H]1Cc1nc(-c2ccccn2)no1 [Example 156],6%,50%,23 nM,97%,5 nM
C[C@@]1(COc2ccc(C(F)(F)F)cn2)CCCN1C(=O)c1nn2c(c1-c1ccccc1)OCCC2 [Example 157],7%,16%,190 nM,100%,39 nM
C[C@@]1(COc2ccc(C(F)(F)F)cn2)CCCN1C(=O)c1c(-c2ccccc2)nn2cccnc12 [Example 158],2%,46%,120 nM,93%,26 nM
[2H]C1([2H])CC[C@@]([2H])(COc2ccc(C(F)(F)F)cn2)N1C(=O)c1nn2c(c1-c1ccccc1)COCC2 [Example 171],0%,26%,10 nM,100%,2 nM
O=C(c1nn2ccccc2c1-c1ccccn1)N1CCC[C@H]1COc1ccc(C(F)(F)F)cn1 [Example 172],4%,40%,–,100%,–
